Measured values reported in patent publication US20060240026A1, “Preventing and/or remedy hematopoietic tumor” (GREEN PEPTIDE CO., LTD., priority 2003, published 2006).
Where “and” joins values, the source holds several entries; their conditions need not be identical. Equal entries are not always repeated. Entries after “also recorded” stand apart in the source; their conditions may differ. Ends that are not written are not given here.

Key:
[1] = system: HLA-A24+ hematologic malignant cell line (PEER, REH); test: 51Cr-release test of peptide-stimulated PBMCs against HLA-A24+ malignant line; assay type: cell-based, human; details: peptide-stimulated patient PBMCs further cultured with IL-2, effector/target 3, 10 or 30, 6 h
Method: (§1) Then, the cytotoxicity against hematologic malignant cell lines was examined by a standard ^51Cr-release test (Non-Patent Reference 5). Specifically, the PBMCs obtained were used as an effector to mix with ^51Cr-labelled target cells (hereinafter referred to as targets) at an effector/target rate of 3, 10 or 30, and then incubated for six hours, followed by measuring the radioactivity of ^51Cr released in the supernatants. The results obtained were indicated as % lysis which was calculated by regarding a radioactivity as 100% when the targets were completely dissolved. The following targets were used: PEER, an HLA-A24^+ hematologic malignant cell line; HPB-MLT, an HLA-A24^− hematologic malignant cell line; and an HLA-A24^+ PHA blastoid T-cell.

[2] = system: PBMCs of HLA-A24+ patients with hematologic malignancies; test: IFN-γ production by peptide-stimulated patient PBMCs in response to peptide-pulsed C1R-A24 cells; assay type: cell-based, human; parameters: peptide-specific IFN-γ production: unit not given here; details: for peptide-specific IFN-γ production: 10 μM peptide in vitro, vs peptide-pulsed C1R-A24, HIV-peptide background subtracted; for Responding case/total (enhancement of IFN-γ production): ten HLA-A24+ patients with hematologic malignancies
Method: The induction of peptide-specific cytotoxic T lymphocytes from PBMCs of a patient with hematologic malignancy was conducted as reported preveously (Non-Patent Reference 5). The following peptides were used to induce cytotoxic T lymphocytes: p56^lck protein-derived peptides (Lck208 (SEQ ID NO: 1), Lck488 (SEQ ID NO: 2) and Lck486 (SEQ ID NO: 3)); SART-1-derived peptide (SART-1690 (SEQ ID NO: 4)); SART-2-derived peptides (SART-293 (SEQ ID NO: 5), SART-2161 (SEQ ID NO: 6) and SART-2899 (SEQ ID NO: 7)); SART-3-derived peptides (SART-3109 (SEQ ID NO: 8) and SART-3315 (SEQ ID NO: 9)); and ART-1-derived peptide (ART-1170 (SEQ ID NO: 10)). All of these peptides are the epithelial cancer-related antigen-derived peptides and have the ability to induce cytotoxic T lymphocytes from PBMCs of an epithelial cancer patient in an HLA-A24 dependent manner (Non-Patent References 3-6 and 12). A human immunodeficiency virus (HIV)-derived peptide (SEQ ID NO: 11) and Epstein-Barr virus (EBV)-derived peptide (SEQ ID NO: 12) were used respectively as a negative control peptide and positive control peptide both of which have an HLA-A24-binding motif. […] PBMCs were prepared from peripheral blood that was collected from a patient with hematologic malignancy using Ficoll-Conray density-gradient centrifugation. The expression of HLA-A24 molecules on PBMCs was determined using flow cytometry by a well known method (Non-Patent Reference 5). The induction of cytotoxic T lymphocytes from PBMCs was conducted as follows. […] The culture medium consisted of 45% RPMI-1640, 45% AIM-V (Invitrogen), 10% FCS, 100 U/ml of interleukin-2 (IL-2), and 0.1 mM MEM non-essential amino acid solution (Invitrogen). […] The background IFN-γ production in response to the HIV-derived peptide (SEQ ID NO: 11) was subtracted from the values given in the data. When the mean value of the IFN-γ produced from the peptide-stimulated PBMCs in response to a corresponding peptide was higher than that produced in response to the HIV peptide (SEQ ID NO: 11), it was judged that the precursor of a peptide-specific cytotoxic T lymphocyte was present in the PBMCs and that the peptide-specific cytotoxic T lymphocytes were induced by the peptide. PBMCs of ten cases of HLA-A24^+ patients with hematologic malignancies (two cases with CLL, one case with MCL, one case with NHL, one case with B-ALL, one case with MM, one case with MDS, two cases with ATL, and one case with T-ALL) were tested for the induction of cytotoxic T lymphocytes using peptides that were derived from p56^lck protein, SART-1, SART-2, SART-3 and ART-1. The peptides used were the peptides that induced peptide-specific tumor-reactive cytotoxic T lymphocytes from PBMCs of an HLA-A24^+ epithelial cancer patient, which are currently on clinical trials for use as vaccines for epithelial cancer patients. The PBMCs were stimulated with the peptide in vitro to measure the peptide-specific IFN-γ production.

[3] = system: C1R-A24 cells pulsed with the peptides; test: Peptide-specific cytotoxic activity of PBMCs of vaccinated multiple myeloma patient (51Cr-release); assay type: in vivo, human; details: for peptide-specific cytotoxic activity of PBMCs: MM patient No. 6, PBMCs acquired after the sixth vaccination; for cytotoxic activity (% lysis) against C1R-A24 cells pulsed with corresponding peptide: MM patient No. 6, with the increasing number of peptide vaccination
From the text: The patient (patient No. 6 in table 2) subjected to clinical trials was a HLA-A24^+ […] suffering from IgA-type multiple myeloma with a stage III by Durie & Salmon's classification. The patient received multiple cycles of chemotherapy before participating in this clinical test and had acquired the resistance to chemotherapy. However, for four weeks before peptide vaccination, the patient had not received chemotherapy and administration with steroid or any other immunosuppressive drugs.
Three kinds of emulsions each of which contains each of these peptides respectively and an adjuvant were prepared according to the method described in Example 1, and vaccinated to the patient by injecting subcutaneously at different sites of the patient's lateral thigh. […] The skin test was conducted by injecting intradermally the solution of 50 μg of each peptide in physiological saline and determining immediate-type or delayed-type hypersensitivity reaction at 20 minutes or 24 hours after the injection.
The vaccinations were conducted seven times every two weeks using SART-1690 (SEQ ID NO: 4), Lck488 (SEQ ID NO: 2) and ART-1170 (SEQ ID NO: 10). The cytotoxic activity of PBMCs acquired after the sixth vaccination was measured according to the in vitro test described in Example 3. […] Therefore, in the eighth and later vaccinations, three kinds of emulsions each of which contains SART-1690 (SEQ ID NO: 4), Lck488 (SEQ ID NO: 2) or Lck208 (SEQ ID NO: 1) and an adjuvant were prepared according to the method described in Example 1 and used.
After the vaccinations, PBMCs derived from the patient were studied for their peptide-specific cytotoxic activity by ^51Cr-release test using C1R-A24 cells pulsed with the peptides used. […] On the other hand, their cytotoxic activity was extremely low against RPMI-8226 that is an HLA-A24^− myeloid cell line.

[4] = system: HLA-A24+ PHA blastoid T-cell; test: 51Cr-release test of peptide-stimulated PBMCs against normal cells; assay type: cell-based, human; details: peptide-stimulated patient PBMCs further cultured with IL-2; effector/target 3, 10 or 30; 6 h
Method: as §1

[5] = system: HLA-A24- hematologic malignant cell line (HPB-MLT); test: 51Cr-release test of peptide-stimulated PBMCs against HLA-A24- malignant line; assay type: cell-based, human; details: peptide-stimulated patient PBMCs further cultured with IL-2; effector/target 3, 10 or 30; 6 h
Method: as §1

## CSCC[C@H](NC(=O)[C@H](Cc1ccccc1)NC(=O)[C@@H](NC(=O)[C@@H]1CCCN1C(=O)CNC(=O)[C@H](Cc1ccc(O)cc1)NC(=O)[C@@H](N)[C@@H](C)O)C(C)C)C(=O)N[C@@H](CS)C(=O)N[C@@H](CC(C)C)C(=O)O [EBV, reference compound]
[1]; listed as EBV derive peptides
  cytotoxic activity (% lysis) against HLA-A24+ hematologic malignant line: not observed
[1]; listed as EBV-derived peptide
  cytotoxic activity (% lysis) against HLA-A24+ hematologic malignant line: exhibited no cytotoxic activity
[1]; listed as Epstein-Barr virus (EBV)-derived peptide
  cytotoxic activity (% lysis) against HLA-A24+ hematologic malignant line: exhibited no cytotoxic activity

## Lck208: p56lck protein-derived peptide, N-terminal residue at position 208; epithelial cancer-related antigen peptide (HYTNASDGL; Partial peptide of p56lck protein)
[2]; PBMCs of patient #1 CLL
  peptide-specific IFN-γ production: 0
[2]; PBMCs of patient #2 CLL
  peptide-specific IFN-γ production: 2
[2]; PBMCs of patient #3 MCL
  peptide-specific IFN-γ production: 22
[2]; PBMCs of patient #4 NHL
  peptide-specific IFN-γ production: 30
[2]; PBMCs of patient #5 B-ALL
  peptide-specific IFN-γ production: 0
[2]; PBMCs of patient #6 MM
  peptide-specific IFN-γ production: 0
[2]; PBMCs of patient #7 MDS
  peptide-specific IFN-γ production: 0
[2]; PBMCs of patient #8 ATL
  peptide-specific IFN-γ production: 0
[2]; PBMCs of patient #9 ATL
  peptide-specific IFN-γ production: 445
[2]; PBMCs of patient #10 T-ALL
  peptide-specific IFN-γ production: 153
[2]
  Responding case/total (enhancement of IFN-γ production): two and 2/10
[3]
  peptide-specific cytotoxic activity of PBMCs: observed
  cytotoxic activity (% lysis) against C1R-A24 cells pulsed with corresponding peptide: enhanced induction of cytotoxic activity

## Lck488: p56lck protein-derived peptide; epithelial cancer-related antigen peptide (DYLRSVLEDF; Partial peptide of p56lck protein)
[2]; PBMCs of patient #1 CLL
  peptide-specific IFN-γ production: 0
[2]; PBMCs of patient #2 CLL
  peptide-specific IFN-γ production: 0
[2]; PBMCs of patient #3 MCL
  peptide-specific IFN-γ production: 0
[2]; PBMCs of patient #4 NHL
  peptide-specific IFN-γ production: 0
[2]; PBMCs of patient #5 B-ALL
  peptide-specific IFN-γ production: 6
[2]; PBMCs of patient #6 MM
  peptide-specific IFN-γ production: 182
[2]; PBMCs of patient #7 MDS
  peptide-specific IFN-γ production: 102
[2]; PBMCs of patient #8 ATL
  peptide-specific IFN-γ production: 476
[2]; PBMCs of patient #9 ATL
  peptide-specific IFN-γ production: 304
[2]; PBMCs of patient #10 T-ALL
  peptide-specific IFN-γ production: 0
[2]
  Responding case/total (enhancement of IFN-γ production): four and 4/10
[3]
  peptide-specific cytotoxic activity of PBMCs: observed
  cytotoxic activity (% lysis) against C1R-A24 cells pulsed with corresponding peptide: enhanced induction of cytotoxic activity

## AYDFLYNYL [SART-2161]
[4]
  cytotoxic activity (% lysis) against HLA-A24+ PHA blastoid T-cells: did not show cytotoxic activity; also recorded: did not exhibit cytotoxic activity
[1]
  cytotoxic activity (% lysis) against HLA-A24+ hematologic malignant line: significant cytotoxic activity; also recorded: exhibited cytotoxic activity
[5]
  cytotoxic activity (% lysis) against HLA-A24- hematologic malignant line: did not show cytotoxic activity; also recorded: did not exhibit cytotoxic activity

## SART-3315: SART-3-derived peptide; epithelial cancer-related antigen peptide (AYIDFEMKI; Partial peptide of SART-3)
[2]; PBMCs of patient #1 CLL
  peptide-specific IFN-γ production: 39
[2]; PBMCs of patient #2 CLL
  peptide-specific IFN-γ production: 137
[2]; PBMCs of patient #3 MCL
  peptide-specific IFN-γ production: 6
[2]; PBMCs of patient #4 NHL
  peptide-specific IFN-γ production: 0
[2]; PBMCs of patient #5 B-ALL
  peptide-specific IFN-γ production: 11
[2]; PBMCs of patient #6 MM
  peptide-specific IFN-γ production: 0
[2]; PBMCs of patient #7 MDS
  peptide-specific IFN-γ production: 0
[2]; PBMCs of patient #8 ATL
  peptide-specific IFN-γ production: 22
[2]; PBMCs of patient #9 ATL
  peptide-specific IFN-γ production: 60
[2]; PBMCs of patient #10 T-ALL
  peptide-specific IFN-γ production: 6
[2]
  Responding case/total (enhancement of IFN-γ production): 1/10

## SYTRLFLIL [SART-2899]
[4]
  cytotoxic activity (% lysis) against HLA-A24+ PHA blastoid T-cells: did not show cytotoxic activity
[1]
  cytotoxic activity (% lysis) against HLA-A24+ hematologic malignant line: significant cytotoxic activity
[5]
  cytotoxic activity (% lysis) against HLA-A24- hematologic malignant line: did not show cytotoxic activity

## SART-1690: SART-1-derived peptide; epithelial cancer-related antigen peptide (EYRGFTQDF; Partial peptide of SART-1)
[2]; PBMCs of patient #1 CLL
  peptide-specific IFN-γ production: 0
[2]; PBMCs of patient #2 CLL
  peptide-specific IFN-γ production: 486
[2]; PBMCs of patient #3 MCL
  peptide-specific IFN-γ production: 0
[2]; PBMCs of patient #4 NHL
  peptide-specific IFN-γ production: 53
[2]; PBMCs of patient #5 B-ALL
  peptide-specific IFN-γ production: 8
[2]; PBMCs of patient #6 MM
  peptide-specific IFN-γ production: 141
[2]; PBMCs of patient #7 MDS
  peptide-specific IFN-γ production: 0
[2]; PBMCs of patient #8 ATL
  peptide-specific IFN-γ production: 55
[2]; PBMCs of patient #9 ATL
  peptide-specific IFN-γ production: 155
[2]; PBMCs of patient #10 T-ALL
  peptide-specific IFN-γ production: 26
[2]
  Responding case/total (enhancement of IFN-γ production): 3/10
[3]
  peptide-specific cytotoxic activity of PBMCs: observed

## RYLRDQQLLGI [HIV, reference compound]
[1]; listed as HIV-derived peptide
  cytotoxic activity (% lysis) against HLA-A24+ hematologic malignant line: not observed
[1]; listed as human immunodeficiency virus (HIV)-derived peptide
  cytotoxic activity (% lysis) against HLA-A24+ hematologic malignant line: exhibited no cytotoxic activity
